The results in this text go back to patent US11192932B2, “Heparin-binding domain of IGFBP-2 in the treatment of metabolic disorders” (Amolyt Pharma, priority 2018, dated 2021).

Experiment [1] relates to Akt. Nature of the experiment: Akt phosphorylation (immunoblot anti-Akt pS473) in C2C12 myotubes. The class given is cell-based, mouse. The note with it: peptide incubated 8 hours (FIG. 6). Here is the method:
In particular: HBD1 SEQ ID NO: 73 (C18:0-HLGLEEPKK). The Akt pathway is utilized by both insulin and IGF1 to ultimately induce GLUT4 translocation to the cell membrane to facilitate the uptake and metabolism of glucose.
For signaling studies the cells were prepared the same way except 6-well plates were used. After 6 days incubation in differentiating medium, the cells were washed with serum-free medium. The various treatments were then added in serum free medium containing 0.1% BSA. HBD1 peptides were added and incubated for 8 hours. When utilizing IGF-I, incubation was for 15 minutes after IGF-1 addition. Following incubation the cells were lysed in RIPA buffer and sonicated. The cell lysate was centrifuged and the supernatant analyzed for either Akt or AMPK by SDS PAGE using a 10% gel followed by immunoblotting with the appropriate antibody.
To examine the intracellular transduction pathways utilized by the HBD1 peptides, following treatment with HBD1 peptide SEQ ID NO: 73 (C18:0-HLGLEEPKK), cell lysate proteins were separated by SDS PAGE and immunoblotted with anti-Akt pS473 antibodies.
(In general: Immunoblotting shows a protein as a band on a membrane.)

Experiment [2] concerns 3T3-LI adipocytes. Nature of the experiment: [3H]-2-deoxyglucose uptake by fully differentiated 3T3-LI adipocytes. The class given is cell-based, mouse. The note with it: 3 μg/ml for 24 hours. On the procedure:
The cells were exposed to the test compounds at a concentration of 3 μg/ml for 24 hours before testing for [^3H]-2-deoxyglucose uptake.
3T3-LI cells are a mouse fibroblast cell line which when cultured under specific conditions, differentiate into adipocytes.
Differentiation of 3T3-LI cells into adipocytes was achieved using the following protocol. 3T3-L1 cells were seeded in 24-well plates and cultured in 3T3-L1 maintenance medium (DMEM containing 10% fetal bovine serum, 4 mM L-glutamine 1 mM, sodium pyruvate) until the cells were 100% confluent. The cells were then fed with 3T3-L1 maintenance medium and cultured for a further 48 h. To initiate differentiation into adipocytes, the medium was changed to Differentiation medium 1 (DMEM containing 10% fetal bovine serum, 4 mM L-glutamine, 1 mM sodium pyruvate, 0.5 mM IBMX, […]), and cultured for a further 2 days. The medium was then changed to Differentiation medium 2 (DMEM containing 10% fetal bovine serum, 4 mM L-glutamine, 1 mM sodium pyruvate, 1 mg/ml insulin), and cultured for a further 2 days. The medium was then changed to Adipocyte Maintenance medium (DMEM containing 10% fetal bovine serum, 4 mM L-glutamine, 1 mM sodium pyruvate), and cultured for a further 7 days. During this time, the medium was changed every other day. The now fully differentiated adipocytes were utilized for glucose uptake experiments (day 11 from initiation of differentiation). Stock solutions of the HBD1 peptides to be tested were prepared by dilution with 0.9% NaCl solution under sterile conditions in a laminar flow cabinet to a concentration of 1 mg/ml, based on net peptide content. The solutions were homogenized by gentle inversion. Test items were prepared from the stock solutions, and remaining stock solution was aliquoted and stored at −20° C. and used without repeated freeze-thaw cycles.
Glucose uptake experiments were carried our using the following protocol. Prior to beginning the experiment, 100 ml of Krebs Ringer bicarbonate buffer (KRBB)(25 mM Hepes pH 7.4, 118 mM NaCl, 5 mM NaHCO3, 4.7 mM KCl, 1.2 mM KH2PO4, 1.2 mM MgSO4, 2.5 mM CaCl2, 0.2% BSA—Filtered using a 0.2 μm filter) and 100 ml of Incubation medium (DMEM containing 4 mM L-glutamine, 1 mM sodium pyruvate, 1% penicillin streptomycin, 0.2% BSA—Filtered using a 0.2 μm filter) were pre-warmed to 37° C., and 500 ml of KRBB was chilled on ice. Stock solutions of test compounds were diluted to 3 μg/ml final concentrations in pre-warmed Incubation medium and in pre-warmed KRBB. Insulin (positive control), previously diluted 1:1000 in sterile 0.9% NaCl, was further diluted in 10 ml of both medium and buffer to a final concentration of 1 nM. All traces of the medium were carefully removed from the cells using a fine tip. […]

Entries after “also recorded” stand apart in the source; their conditions may differ. No end group written: not given here. *: point of attachment. Stearoyl = CCCCCCCCCCCCCCCCCC(=O)*

Consider “C18:0-HLGLEEPKK (Stearoyl-HLGLEEPKK) [SEQ ID NO: 73]”, for which, in experiment [1], the “phosphorylated Akt (pS473)” value is “dose-related increase in phosphorylated Akt; also recorded: dose-dependent phosphorylation (activation) of the Akt pathway”. Also, the “glucose uptake by 3T3-LI adipocytes” value in experiment [2] is on record as “stimulated increased glucose uptake”.
